Data published in ChEMBL document CHEMBL1817560, “Selectivity of kinase inhibitor fragments” (J Med Chem, 2011).
Values belong to the compound of their own block, whether it stands above or below them.

Experiments:
Settings in all cases: read-out: IC50
[1] = target: RAC-alpha serine/threonine-protein kinase (Homo sapiens, UniProt P31749); assay: Inhibition of AKT1 expressed in Escherichia coli or baculovirus-infected insect cells by scintillation proximity assay
[2] = target: T1, Inhibitor of nuclear factor kappa-B kinase subunit beta (Homo sapiens, UniProt O14920); assay: biochemical; assay type: cell-based
T1 sequence (O14920 whole entry): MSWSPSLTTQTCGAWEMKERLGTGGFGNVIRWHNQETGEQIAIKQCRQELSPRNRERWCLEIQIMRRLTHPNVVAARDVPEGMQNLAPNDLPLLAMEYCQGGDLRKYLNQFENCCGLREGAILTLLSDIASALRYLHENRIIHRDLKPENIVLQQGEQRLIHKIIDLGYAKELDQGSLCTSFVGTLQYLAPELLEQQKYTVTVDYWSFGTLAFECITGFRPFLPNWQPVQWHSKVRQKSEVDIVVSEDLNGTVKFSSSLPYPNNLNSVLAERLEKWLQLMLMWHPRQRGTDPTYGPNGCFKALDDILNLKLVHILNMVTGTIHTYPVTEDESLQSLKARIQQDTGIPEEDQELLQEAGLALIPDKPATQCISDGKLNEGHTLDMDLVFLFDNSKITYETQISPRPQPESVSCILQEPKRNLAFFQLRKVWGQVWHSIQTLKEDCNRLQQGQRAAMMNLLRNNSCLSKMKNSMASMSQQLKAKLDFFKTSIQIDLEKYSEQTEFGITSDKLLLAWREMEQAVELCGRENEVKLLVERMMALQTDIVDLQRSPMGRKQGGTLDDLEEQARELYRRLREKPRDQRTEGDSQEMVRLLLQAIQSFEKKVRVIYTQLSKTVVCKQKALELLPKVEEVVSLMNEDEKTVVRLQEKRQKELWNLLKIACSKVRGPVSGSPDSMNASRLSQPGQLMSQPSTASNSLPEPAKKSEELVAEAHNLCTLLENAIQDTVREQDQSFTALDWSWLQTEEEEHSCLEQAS

[3] = target: Mitogen-activated protein kinase 8 (Homo sapiens, UniProt P45983); assay: Inhibition of JNK1 expressed in Escherichia coli or baculovirus-infected insect cells by TR-FRET assay
Mitogen-activated protein kinase 8, sequence (P45983 whole entry): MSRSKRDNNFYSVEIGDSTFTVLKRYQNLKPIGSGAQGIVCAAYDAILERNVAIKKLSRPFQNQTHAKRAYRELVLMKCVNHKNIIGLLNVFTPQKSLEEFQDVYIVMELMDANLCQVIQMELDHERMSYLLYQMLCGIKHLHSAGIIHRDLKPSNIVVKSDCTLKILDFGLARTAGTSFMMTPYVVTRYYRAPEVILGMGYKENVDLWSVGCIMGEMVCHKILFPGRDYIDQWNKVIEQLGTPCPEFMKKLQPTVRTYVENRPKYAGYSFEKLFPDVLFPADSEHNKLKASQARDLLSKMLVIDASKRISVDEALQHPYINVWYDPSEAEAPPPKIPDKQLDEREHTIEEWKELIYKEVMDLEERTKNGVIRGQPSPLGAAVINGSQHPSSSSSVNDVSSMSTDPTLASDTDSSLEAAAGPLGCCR

RAC-alpha serine/threonine-protein kinase, sequence (P31749 whole entry): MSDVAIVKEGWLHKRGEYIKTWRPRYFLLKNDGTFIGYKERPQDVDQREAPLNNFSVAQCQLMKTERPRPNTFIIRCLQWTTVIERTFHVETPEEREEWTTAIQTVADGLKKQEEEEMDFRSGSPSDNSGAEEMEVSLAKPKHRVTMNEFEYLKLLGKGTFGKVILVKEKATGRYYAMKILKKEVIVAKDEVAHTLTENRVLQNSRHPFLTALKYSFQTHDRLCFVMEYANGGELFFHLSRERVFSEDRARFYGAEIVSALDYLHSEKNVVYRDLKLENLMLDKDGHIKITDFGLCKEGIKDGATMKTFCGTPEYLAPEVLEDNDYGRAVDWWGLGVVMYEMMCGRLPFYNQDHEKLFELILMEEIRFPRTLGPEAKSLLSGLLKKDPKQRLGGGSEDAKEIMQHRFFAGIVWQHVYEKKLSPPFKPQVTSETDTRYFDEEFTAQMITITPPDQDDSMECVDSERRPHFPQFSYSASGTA

IC50 [1]: 0.19 µM
Compound: NCC(NC(=O)c1ccc(-c2ccnc3[nH]ccc23)s1)c1ccccc1 (stereo not drawn)

IC50 [2]: 0.015 µM
Compound: Cc1cc2c(-c3ccc(S(=O)(=O)N(C)CCO)cc3)ccnc2[nH]1

IC50 [3]: < 0.5 µM
Compound: Nc1ccc(-c2cnc3[nH]cc(-c4ccoc4)c3c2)cc1
